Where two headings read alike, the source gives them in different places.
Key:
[1] = test system: S. pneumoniae serotype 19F (EF3030); test: DFMO susceptibility and growth in THY (OD600, MIC); type: cell-based, Streptococcus pneumoniae; parameters: Growthrate: unit not given here
Experimental: (§1) S. pneumoniae serotypes 4 (TIGR4), 2 (D39), 19F (EF3030) and 3 (WU2) were cultured in Todd Hewitt broth supplemented with yeast extract (THY). Supplementation with DFMO ranging from 1.1 to 549 mM was carried out in triplicate in a 96-well plate and incubated at 37 °C and 5% CO2 in a Cytation™ 5 cell imaging multi-mode reader (BioTek, Winooski, VT). The change in optical density at 600 nm (OD600) was measured every hour for 24 h and used to determine the minimum inhibitory concentration (MIC) of DFMO. The optical density data was analyzed using GrowthRates 4.0 software. To determine whether DFMO at sub-MIC is bacteriostatic or lethal to pneumococcal cells, all strains were cultured in the presence or absence of 1/2 MIC DFMO. OD600 was measured every hour and CFU were enumerated on a blood agar plate (BAP) every 2 h over an 8 h incubation period.

[2] = test system: S. pneumoniae serotype 3 (WU2); test: DFMO susceptibility and growth in THY (OD600, MIC); type: cell-based, Streptococcus pneumoniae; parameters: Growthrate: unit not given here
Experimental: as §1

[3] = test system: S. pneumoniae serotype 4 (TIGR4); test: DFMO susceptibility and growth in THY (OD600, MIC); type: cell-based, Streptococcus pneumoniae; parameters: Growthrate: unit not given here
Experimental: as §1

[4] = test system: S. pneumoniae serotype 2 (D39); test: DFMO susceptibility and growth in THY (OD600, MIC); type: cell-based, Streptococcus pneumoniae; parameters: Growthrate: unit not given here; settings: D39
Experimental: as §1

[5] = target: SP_0916 (arginine decarboxylase, ADC) (Streptococcus pneumoniae, UniProt A0A0H2UPK4); test: Inhibition of decarboxylase activities of recombinant SP_0916 (LC-MS); type: biochemical; settings: 10 mM substrate, 15 min, 37 °C
Chain of SP_0916 (arginine decarboxylase, ADC) (A0A0H2UPK4 entry or part of it): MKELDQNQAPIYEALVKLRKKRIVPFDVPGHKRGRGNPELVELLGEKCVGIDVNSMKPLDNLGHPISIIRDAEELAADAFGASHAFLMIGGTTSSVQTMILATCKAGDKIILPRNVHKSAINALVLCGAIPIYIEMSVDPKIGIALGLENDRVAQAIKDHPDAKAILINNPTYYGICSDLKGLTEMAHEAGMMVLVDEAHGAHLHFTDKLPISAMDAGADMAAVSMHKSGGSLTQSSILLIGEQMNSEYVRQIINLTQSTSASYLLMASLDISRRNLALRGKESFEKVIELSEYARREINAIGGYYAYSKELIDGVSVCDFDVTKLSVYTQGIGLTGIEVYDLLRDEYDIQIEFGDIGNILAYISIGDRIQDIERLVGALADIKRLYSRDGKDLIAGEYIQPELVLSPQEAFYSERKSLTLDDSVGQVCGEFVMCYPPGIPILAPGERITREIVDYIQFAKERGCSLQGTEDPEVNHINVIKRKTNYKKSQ
Source text: We determined the impact of DFMO (ODC/ADC inhibitor) and α-difluoromethylarginine (DFMA, an ADC inhibitor) on the decarboxylase activities of SP_0916. BL21(DE3) cells expressing recombinant His tag SP_0916 were lysed with B-PER reagent buffer (Thermo Fisher Scientific, Waltham, MA, USA), lysate separated by loading unto HisPur Cobalt Spin Column (Thermo Fisher Scientific, Waltham, MA, USA), desalted using Sephadex G-25 PD-10 column (GE Healthcare, Chicago, IL, USA), and protein concentration estimated using the Pierce BCA Protein Assay kit (Thermo Fisher Scientific, Waltham, MA, USA).
SP_0916-encoded protein (0.926 µmol L^−1) was mixed with 10 mM substrate (arginine, lysine or ornithine) in the reaction mixture (500 µL reaction volume, 50 mM Tris–HCl, pH 8.0) that contains 2.5 mM MgSO4 and 0.6 mM PLP. DFMO was diluted in water to 3–900 mM and added to the reaction mixture after 5 min preincubation at 37 °C in the dark. DFMA stock was made in a similar manner but was diluted in water to 0.3–1000 µM. The enzyme and inhibitor were incubated at 37 °C for 15 min in the dark and the reaction terminated with 0.3 M perchloric acid. After incubation on ice for 15 min, the samples were neutralized with 25 µL of 10 N KOH and extracted with 1 mL of 1-butanol. The organic layer was dried under nitrogen gas and reconstituted with 100 µL of water containing Spermidine-d8 and Glucose-d7 as an internal standard. Analysis of the extracts was performed on a Surveyor LC–MS system. 5 µL of reconstitution was injected to the LC–MS system for detection of the products (agmatine, cadaverine or putrescine). We used internal standards to normalize and determine the peak intensity (area ratio) for each metabolite detected. Enzyme activity without inhibitor is referred to as a control activity. All experiments were performed in triplicate. The concentration of inhibitor that inhibited 50% of the control activity (IC50 value) was determined by varying the concentration of the indicated DFMO or DFMA and measuring the decarboxylase activity. Sigma Plot v. 12 was used to fit the curve through the points and IC50 values were interpolated from the fitted curve.

NCCC[C@](N)(C(=O)O)C(F)F [DFMO, α-difluoromethylornithine]
difference in growth rate in presence or absence of DFMO (GrowthRates software) [1]: did not identify any significant differences
Growthrate ([1]; DFMO 0.2 µg/µL): 0.035
Max OD ([1]; DFMO 0.2 µg/µL): 1.413
Growthrate ([1]; DFMO 0.4 µg/µL): 0.021
Max OD ([1]; DFMO 0.4 µg/µL): 1.458
Growthrate ([1]; DFMO 0.8 µg/µL): 0.037
Max OD ([1]; DFMO 0.8 µg/µL): 1.485
Growthrate ([1]; DFMO 1.6 µg/µL): 0.037
Max OD ([1]; DFMO 1.6 µg/µL): 1.495
Growthrate ([1]; DFMO 3.1 µg/µL): 0.036
Max OD ([1]; DFMO 3.1 µg/µL): 1.517
Growthrate ([1]; DFMO 6.3 µg/µL): 0.035
Max OD ([1]; DFMO 6.3 µg/µL): 1.538
Growthrate ([1]; DFMO 12.5 µg/µL): 0.030
Max OD ([1]; DFMO 12.5 µg/µL): 1.513
Growthrate ([1]; DFMO 25.0 µg/µL): 0.040
Max OD ([1]; DFMO 25.0 µg/µL): 1.319
Growthrate ([1]; DFMO 50.0 µg/µL): 0.000
Max OD ([1]; DFMO 50.0 µg/µL): 0.000
Growthrate ([1]; DFMO 100.0 µg/µL): 0.000
Max OD ([1]; DFMO 100.0 µg/µL): 0.000
difference in growth rate in presence or absence of DFMO (GrowthRates software) [2]: did not identify any significant differences
growth curve versus control ([2]; 1/2 MIC DFMO (137 mM)): longer lag phase and a lower maximal O.D
Growthrate ([2]; DFMO 0.2 µg/µL): 0.046
Max OD ([2]; DFMO 0.2 µg/µL): 0.497
Growthrate ([2]; DFMO 0.4 µg/µL): 0.047
Max OD ([2]; DFMO 0.4 µg/µL): 0.509
Growthrate ([2]; DFMO 0.8 µg/µL): 0.047
Max OD ([2]; DFMO 0.8 µg/µL): 0.548
Growthrate ([2]; DFMO 1.6 µg/µL): 0.046
Max OD ([2]; DFMO 1.6 µg/µL): 0.575
Growthrate ([2]; DFMO 3.1 µg/µL): 0.050
Max OD ([2]; DFMO 3.1 µg/µL): 0.650
Growthrate ([2]; DFMO 6.3 µg/µL): 0.048
Max OD ([2]; DFMO 6.3 µg/µL): 0.652
Growthrate ([2]; DFMO 12.5 µg/µL): 0.048
Max OD ([2]; DFMO 12.5 µg/µL): 0.696
Growthrate ([2]; DFMO 25.0 µg/µL): 0.046
Max OD ([2]; DFMO 25.0 µg/µL): 0.303
Growthrate ([2]; DFMO 50.0 µg/µL): 0.000
Growthrate ([2]; DFMO 100.0 µg/µL): 0.000
difference in growth rate in presence or absence of DFMO (GrowthRates software) [3]: did not identify any significant differences
Growthrate ([3]; DFMO 0.2 µg/µL): 0.055
Max OD ([3]; DFMO 0.2 µg/µL): 1.583
Growthrate ([3]; DFMO 0.4 µg/µL): 0.056
Max OD ([3]; DFMO 0.4 µg/µL): 1.619
Growthrate ([3]; DFMO 0.8 µg/µL): 0.056
Max OD ([3]; DFMO 0.8 µg/µL): 1.657
Growthrate ([3]; DFMO 1.6 µg/µL): 0.057
Max OD ([3]; DFMO 1.6 µg/µL): 1.695
Growthrate ([3]; DFMO 3.1 µg/µL): 0.056
Max OD ([3]; DFMO 3.1 µg/µL): 1.654
Growthrate ([3]; DFMO 6.3 µg/µL): 0.055
Max OD ([3]; DFMO 6.3 µg/µL): 1.635
Growthrate ([3]; DFMO 12.5 µg/µL): 0.056
Max OD ([3]; DFMO 12.5 µg/µL): 1.560
Growthrate ([3]; DFMO 25.0 µg/µL): 0.052
Max OD ([3]; DFMO 25.0 µg/µL): 1.280
Growthrate ([3]; DFMO 50.0 µg/µL): 0.000
Max OD ([3]; DFMO 50.0 µg/µL): 0.000
Growthrate ([3]; DFMO 100.0 µg/µL): 0.000
Max OD ([3]; DFMO 100.0 µg/µL): 0.000
difference in growth rate in presence or absence of DFMO (GrowthRates software) [4]: did not identify any significant differences
growth curve versus control ([4]; 1/2 MIC DFMO (137 mM)): longer lag phase and a lower maximal O.D
Growthrate ([4]; DFMO 0.2 µg/µL): 0.025
Max OD ([4]; DFMO 0.2 µg/µL): 1.555
Growthrate ([4]; DFMO 0.4 µg/µL): 0.019
Max OD ([4]; DFMO 0.4 µg/µL): 1.573
Growthrate ([4]; DFMO 0.8 µg/µL): 0.018
Max OD ([4]; DFMO 0.8 µg/µL): 1.615
Growthrate ([4]; DFMO 1.6 µg/µL): 0.040
Max OD ([4]; DFMO 1.6 µg/µL): 1.648
Growthrate ([4]; DFMO 3.1 µg/µL): 0.039
Max OD ([4]; DFMO 3.1 µg/µL): 1.642
Growthrate ([4]; DFMO 6.3 µg/µL): 0.037
Max OD ([4]; DFMO 6.3 µg/µL): 1.647
Growthrate ([4]; DFMO 12.5 µg/µL): 0.036
Max OD ([4]; DFMO 12.5 µg/µL): 1.613
Growthrate ([4]; DFMO 25.0 µg/µL): 0.029
Max OD ([4]; DFMO 25.0 µg/µL): 0.985
Growthrate ([4]; DFMO 50.0 µg/µL): 0.000
Max OD ([4]; DFMO 50.0 µg/µL): 0.000
Growthrate ([4]; DFMO 100.0 µg/µL): 0.000
Max OD ([4]; DFMO 100.0 µg/µL): 0.000
IC50 ([5]; DFMO IC50, ornithine to putrescine): 26.6 ± 4.1 mM
IC50 ([5]; arginine to agmatine, read-out: DFMO IC50): 75.1 ± 5.5 mM
IC50 ([5]; lysine to cadaverine, read-out: DFMO IC50): 8.2 ± 0.2 mM

Source: PMC9276676, “Difluoromethylornithine (DFMO) and AMXT 1501 inhibit capsule biosynthesis in pneumococci” (Scientific Reports, 2022)
